Source: ChEMBL document CHEMBL2163263, “Mechanism inspired development of rationally designed dihydrofolate reductase inhibitors as anticancer agents” (J Med Chem, 2012)
Calls of active or inactive are those of the source. The rule behind the calls is not given here.

Tests used:
NCI60 = assay: (§1) Growth inhibition of human NCI60 cells incubated for 48 hrs by SRB assay; format: functional
[1] = target: T1, Dihydrofolate reductase (Homo sapiens) (UniProt P00374); assay: Binding affinity to DHFR by [1H]NMR spectroscopy
T1 sequence (whole entry): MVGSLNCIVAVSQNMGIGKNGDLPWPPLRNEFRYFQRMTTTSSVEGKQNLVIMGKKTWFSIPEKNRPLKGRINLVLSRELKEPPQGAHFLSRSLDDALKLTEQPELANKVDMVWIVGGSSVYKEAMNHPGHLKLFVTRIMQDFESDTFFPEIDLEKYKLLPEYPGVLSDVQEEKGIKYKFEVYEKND

[2] = target: T1, Dihydrofolate reductase (Homo sapiens); assay: Binding affinity to DHFR assessed as change in UV-Vis spectra at 10 uM in HEPES buffer at pH 7.2 by UV-Visible spectroscopy
[3] = Total tumor growth inhibition of human NCI60 cells incubated for 48 hrs by SRB assay; format: functional; conditions: NCI60, 48 h
[4] = as §1; format: functional; conditions: NCI60, 48 h
[5] = Toxicity against human NCI60 cells incubated for 48 hrs by SRB assay; format: cell-based; conditions: nci60, 48 h
[6] = target: T1, Dihydrofolate reductase (Homo sapiens)
Description: Inhibition of DHFR reduction in conversion of DHF to THF in presence of NADPH by DHFR assay

[7] = Therapeutic index, ratio of LC50 for human NCI60 cells to GI50 for human NCI60 cells; format: cell-based; conditions: read-out: TI
Hs-578T = assay: Growth inhibition of human Hs578T cells incubated for 48 hrs by SRB assay; format: functional
[8] = target: T1, Dihydrofolate reductase (Homo sapiens); assay: Inhibition of DHFR reduction in conversion of DHF to THF at 10 uM in presence of NADPH by DHFR assay
A498 = assay: Growth inhibition of human A498 cells incubated for 48 hrs by SRB assay; format: functional; conditions: A498, 48 h
[9] = target: T1, Dihydrofolate reductase (Homo sapiens); assay: Inhibition of DHFR reduction in conversion of DHF to THF at 100 uM in presence of NADPH by DHFR assay
[10] = target: T1, Dihydrofolate reductase (Homo sapiens); assay: Inhibition of DHFR reduction in conversion of DHF to THF at 1 uM in presence of NADPH by DHFR assay
OVCAR-3 = assay: Growth inhibition of human OVCAR3 cells incubated for 48 hrs by SRB assay; format: functional; conditions: OVCAR-3, 48 h
UACC-257 = assay: Growth inhibition of human UACC257 cells incubated for 48 hrs by SRB assay; format: functional; conditions: UACC-257, 48 h
NCI-H522 = assay: Growth inhibition of human NCI-H522 cells incubated for 48 hrs by SRB assay; format: functional; conditions: NCI-H522, 48 h
[11] = target: Thymidine phosphorylase (Homo sapiens) (UniProt P19971); assay: Binding affinity to […] assessed as change in UV-Vis spectra at 10 uM in HEPES buffer at pH 7.2 by UV-Visible spectroscopy
Sequence of Thymidine phosphorylase (Homo sapiens) (P19971 whole entry, looked up): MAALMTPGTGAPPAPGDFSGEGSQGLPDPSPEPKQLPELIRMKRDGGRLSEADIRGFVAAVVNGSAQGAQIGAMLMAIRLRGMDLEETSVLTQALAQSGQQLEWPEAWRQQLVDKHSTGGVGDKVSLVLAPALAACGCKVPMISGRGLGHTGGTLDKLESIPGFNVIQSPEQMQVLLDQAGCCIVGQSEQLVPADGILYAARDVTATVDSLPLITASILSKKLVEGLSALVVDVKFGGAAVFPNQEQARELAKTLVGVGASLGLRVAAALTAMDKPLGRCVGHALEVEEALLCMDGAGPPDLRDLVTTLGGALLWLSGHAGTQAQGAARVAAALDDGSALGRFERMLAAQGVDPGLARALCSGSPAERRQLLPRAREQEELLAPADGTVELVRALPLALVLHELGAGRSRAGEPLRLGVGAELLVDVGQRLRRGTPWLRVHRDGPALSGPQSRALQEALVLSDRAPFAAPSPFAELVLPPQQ

MDA-MB-468 = assay: Growth inhibition of human MDA-MB-468 cells incubated for 48 hrs by SRB assay; format: functional; conditions: MDA-MB-468, 48 h
SR = assay: Growth inhibition of human SR cells incubated for 48 hrs by SRB assay; format: functional
[12] = target: T1, Dihydrofolate reductase (Homo sapiens); assay: Inhibition of DHFR reduction in conversion of DHF to THF at 10 nM in presence of NADPH by DHFR assay
[13] = target: T1, Dihydrofolate reductase (Homo sapiens); assay: Binding affinity to DHFR at 48 mM by [1H]NMR spectroscopy
MCF7 = assay: Growth inhibition of human MCF7 cells incubated for 48 hrs by SRB assay; format: functional; conditions: MCF7, 48 h
[14] = target: T1, Dihydrofolate reductase (Homo sapiens); assay: Inhibition of DHFR reduction in conversion of DHF to THF at 100 nM in presence of NADPH by DHFR assay
[15] = target: Thymidylate synthase (Homo sapiens) (UniProt P04818); assay: Binding affinity to thymidylate synthase assessed as change in UV-Vis spectra at 10 uM in HEPES buffer at pH 7.2 by UV-Visible spectroscopy
Sequence of Thymidylate synthase (Homo sapiens) (P04818 2-313 limits assumed): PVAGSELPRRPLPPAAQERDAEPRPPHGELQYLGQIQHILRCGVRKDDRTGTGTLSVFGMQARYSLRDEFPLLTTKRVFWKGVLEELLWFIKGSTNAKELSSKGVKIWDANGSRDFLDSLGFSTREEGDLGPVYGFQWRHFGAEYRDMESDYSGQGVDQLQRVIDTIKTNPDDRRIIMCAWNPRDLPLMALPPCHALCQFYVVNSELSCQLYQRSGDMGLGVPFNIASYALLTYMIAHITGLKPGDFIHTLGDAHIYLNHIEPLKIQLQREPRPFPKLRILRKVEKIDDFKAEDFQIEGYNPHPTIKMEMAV

cells = conditions: Homo sapiens, NCI60, 48 h
[16] = target: T1, Dihydrofolate reductase (Homo sapiens); assay: Binding affinity to DHFR at 32 mM by [1H]NMR spectroscopy
COLO 205 = assay: Growth inhibition of human COLO205 cells incubated for 48 hrs by SRB assay; format: functional; conditions: COLO 205, 48 h, pooled result: one value given for 7 cell lines, strains, targets or settings

Compound	Activity [1]	Activity [2]	TGI [3] [nM]	GI50 [4] [nM]	LC50 [5] [nM]	IC80 [6] [nM]	selectivity ratio [7]	other results
COc1cc(/C=C2\C(=O)N(c3cccc(Cl)c3)N=C2C)cc(OC)c1O	inactive	inactive						growth inhibition (GI) (NCI60): inactive
COc1cc(C=C2C(=O)N(C)C(=O)N(C)C2=O)cc(OC)c1O	inactive	inactive						growth inhibition (GI) (NCI60): inactive
O=C1/C(=C\c2cn(CC(O)CN3CCCCC3)c3ccccc23)c2ccccc2N1c1c(Cl)cccc1Cl (centres undefined)	Active	inactive	3200	1800	9100	890	5.1	
COc1cc(/C=C2\C(=O)Nc3ccccc32)cc(OC)c1O			21400	3500	72400			GI50 (Hs-578T): 600 nM; inhibition [8]: > 90%; GI50 (A498): 600 nM; inhibition [9]: > 90%; inhibition [10]: > 90%; GI50 (OVCAR-3): 600 nM; GI50 (UACC-257): 600 nM; GI50 (NCI-H522): 600 nM; Activity [11]: inactive; GI50 (MDA-MB-468): 600 nM; IC90 [6]: 1360 nM; GI50 (SR): 600 nM; inhibition [12]: > 90%; Activity [13]: Active; GI50 (MCF7): 600 nM; inhibition [14]: > 90%; Activity [15]: inactive; GI50 (cells): 600 nM
COc1ccc2c(c1)c(CC(=O)O)c(C)n2C(=O)c1ccc(Cl)cc1 [INDOMETHACIN]				64300				
O=C1/C(=C\c2ccccn2)c2ccccc2N1c1c(Cl)cccc1Cl	Active	inactive	9100	2000	27500		13.7	
CC1=NN(c2cccc(Cl)c2)C(=O)/C1=C\c1c[nH]c2ccc(Br)cc12	Active	inactive	17700	3900	50100		12.8	
COc1cc(/C=C2\C(=O)N(c3c(Cl)cccc3Cl)c3ccccc32)cc(OC)c1O			19400	1500	61600	10000	41.1	Activity [16]: Active; Activity [11]: inactive; Activity [15]: inactive; K [2]: 1.6 ×10⁷ /M
CC1=NN(c2cccc(Cl)c2)C(=O)/C1=C\c1cn(CC(O)CN2CCCCC2)c2ccccc12 (centres undefined)	Active	inactive	16900	5500	47800	1060	18.4	GI50 (COLO 205): 1700 nM
